Test results as given in article PMC7212882, “Efficacy and pharmacodynamics of niraparib in BRCA-mutant and wild-type intracranial triple-negative breast cancer murine models” (Neuro-oncology Advances, 2019).
pIC50: −log10 of the molar value. Like-named read-outs stand apart in the source and are kept apart here. Marks after values point to notes of the source that are not given here.

Legend:
MDA-MB-231Br = conditions: intracranial MDA-MB-231Br
Procedure: (§1) All animal studies protocols were approved by the University of North Carolina (UNC), Chapel Hill Institutional Animal Care and Use Committee, executed by the UNC Animal Studies Core, and performed as described previously.[23],[27] For IC injections, cells were harvested in log-phase growth and suspended in Hank's Balanced Salt Solution + 0.5% FBS. Eight- to 10-week Foxn1 nu/nu female mice (UNC Animal Studies Core) were implanted with 200 000 cells/5 µl of suspension through stereotactic IC injection in the right striatum. Animal weights were collected from injection to death 3 times weekly. To determine tumor volumes, mice were anesthetized, injected intraperitoneally with D-luciferin dissolved in phosphate-buffered saline (150 mg/kg; Caliper Life Sciences, Hopkinton, MA), and then imaged by IVIS Lumina camera (Caliper Life Sciences). Images were analyzed with Living Image 4.0 software (Caliper Life Sciences). All values were corrected for background and recorded as photons/s.
(§2) For efficacy studies, mice were given a daily oral gavage of 50 mg/kg niraparib or vehicle (0.5% methylcellulose). To determine median survival, animals were sacrificed when weights decreased […] of an individual mouse’s maximum weight. For pharmacodynamic and pharmacokinetic studies, mice were grouped and treated as in efficacy studies for 2 weeks. At 4 h from last niraparib dose, IC tumor, peri-tumoral tissue (2 mm around the perimeter of a tumor), and contralateral brain were dissected, snap frozen, and stored frozen for each mouse and stored at –80°C.
(§3) The Kaplan–Meier method and log-rank test were used to estimate and compare median survival between treatment groups.
(§4) Both fold change in tumor volumes and weight over time were determined relative to treatment start date. Linear mixed models, with a random intercept and slope, were used to evaluate changes over time, overall and between groups (SAS, v9.3)

MDA-MB-436 [1] = tested on: MDA-MB-436
Procedure: as §1, §2, §3, §4

SUM149 [2] = tested on: SUM149
Procedure: as §1, §2, §3, §4

PARP [3] = conditions: in vivo, niraparib daily 2 weeks
Procedure: as §2, with “For efficacy studies, treatment started at day 7 for MDA-MB-231Br, day 14 for SUM149, and day 14 for MDA-MB-436. […] For efficacy” for “For efficacy”
(§5) 25–50 mg of tumor tissue were homogenized per protocol, and lysates were used to quantify PAR (pg/ml) using a chemiluminescent enzyme-linked immunosorbent assay (ELISA) in comparison to provided standards (Trevigen, HT PARP in vivo Pharmacodynamic Assay II, #4520-096-K). PAR values were normalized across models to 100 µg of lysate.
(§6) A 2-way ANOVA with Tukey’s test and P-value correction for multiple comparisons was used to compare tissue levels of niraparib (pharmacokinetics) or PAR (pharmacodynamics). A t-test was used to compare PAR levels in MDA-MB-436 cells treated in vitro (GraphPad Prism, v7.04)

PARP [4] = conditions: MDA-MB-436 cells in vitro; vehicle 3821.1; P = .034
Procedure: as §5, §6

[5] = mouse, in vivo
PARP1/2 = conditions: read-out: in vitro IC50s; dual PARP1/2 inhibitor; cited from earlier work
[6] = tested on: cells with BRCA1/BRCA2 deficiencies; conditions: read-out: in vitro CC50; cited from earlier work
SUM149 [7] = conditions: read-out: 5–7 day CC50; cited from earlier work
MDA-MB-436 [8] = conditions: read-out: 5–7 day CC50; cited from earlier work
MDA-MB-436 [9] = conditions: subcutaneous flank model, female nude mice, 100 mg/kg once daily or 50 mg/kg twice daily; cited from earlier work

NC(=O)c1cccc2cn(-c3ccc([C@@H]4CCCNC4)cc3)nc12 [niraparib, 2-{4-[(3S)-piperidin-3-yl]phenyl}-2H-indazole-7-carboxamide]
median survival (MDA-MB-231Br; 50 mg/kg daily oral gavage, P = .21 vs vehicle (23 days)): 22 days | weight changes vs vehicle (MDA-MB-231Br; 50 mg/kg daily, P = .21): did not differ significantly | tumor volumes measured by luciferase activity vs vehicle (MDA-MB-231Br; 50 mg/kg daily, P = .7): did not differ significantly | body weight (MDA-MB-436 [1]; intracranial MDA-MB-436, 50 mg/kg daily, control mice lost weight, P < .0001): maintained normal weight | mice alive at day 70 (MDA-MB-436 [1]; intracranial MDA-MB-436, 50 mg/kg daily, day 70, end of study): 100% | suppression of tumor bioluminescence (MDA-MB-436 [1]; intracranial MDA-MB-436, 50 mg/kg daily, for the extent of the experiment): greater than 90% | increase in median survival (MDA-MB-436 [1]; intracranial MDA-MB-436, 50 mg/kg daily, study ended day 70, untreated median 50 days, P < .0001): at least 20 days | increase over untreated median survival (MDA-MB-436 [1]; intracranial MDA-MB-436, 50 mg/kg daily, untreated median 50 days): more than 40% | average tumor bioluminescence (MDA-MB-436 [1]; intracranial MDA-MB-436, day 35, after 3 weeks of treatment, control 1.15 × 10^9, P < .0001): 9.56 × 10^7 photons/s | median survival (SUM149 [2]; intracranial SUM149, 50 mg/kg daily oral gavage, P = .30 vs vehicle (33 days)): 34 days | tumor volumes measured by luciferase activity vs vehicle (SUM149 [2]; intracranial SUM149, 50 mg/kg daily, P = .06): did not differ significantly | weight changes vs vehicle (SUM149 [2]; intracranial SUM149, 50 mg/kg daily, P = .14): did not differ significantly | PAR levels, mean (PARP [3]; intracranial MDA-MB-436 tumors, vehicle 195.2, P = .99): 145.7 picogram PAR per microgram tissue | PAR levels, mean (PARP [3]; intracranial SUM149 tumors, vehicle 4054.5, P = .0027): 433.1* picogram PAR per microgram tissue | PAR levels, mean (PARP [4]): 248.2* picogram PAR per microgram tissue | tolerability [5]: well tolerated | pIC50 (PARP1/2): […] | CC50 [6]: 10 to 100 nM | CC50 (SUM149 [7]): 24 nM | CC50 (MDA-MB-436 [8]): 18 nM | in vivo tumor growth (MDA-MB-436 [9]): inhibited
